Results as given in patent US20090036485A1, “Quinoline derivatives” (priority 2004, published 2009).

Key:
[1] = target: T1, PDGFRα tyrosine kinase (Homo sapiens, UniProt P16234); test: In vitro enzyme assay (ELISA), PDGFRα tyrosine kinase; assay type: biochemical; conditions: Test (a); ATP 14 μM; read-out: IC50 versus PDGFRα tyrosine kinase
T1 construct: PDGFRα, PDGFRβ and KDR receptor cytoplasmic domains, obtained by expression of recombinant protein in insect cells; purchased Upstate Biotechnology Inc. 14-467; host or cells: Sf9 insect cells
T1 sequence (P16234 550-1089 limits assumed): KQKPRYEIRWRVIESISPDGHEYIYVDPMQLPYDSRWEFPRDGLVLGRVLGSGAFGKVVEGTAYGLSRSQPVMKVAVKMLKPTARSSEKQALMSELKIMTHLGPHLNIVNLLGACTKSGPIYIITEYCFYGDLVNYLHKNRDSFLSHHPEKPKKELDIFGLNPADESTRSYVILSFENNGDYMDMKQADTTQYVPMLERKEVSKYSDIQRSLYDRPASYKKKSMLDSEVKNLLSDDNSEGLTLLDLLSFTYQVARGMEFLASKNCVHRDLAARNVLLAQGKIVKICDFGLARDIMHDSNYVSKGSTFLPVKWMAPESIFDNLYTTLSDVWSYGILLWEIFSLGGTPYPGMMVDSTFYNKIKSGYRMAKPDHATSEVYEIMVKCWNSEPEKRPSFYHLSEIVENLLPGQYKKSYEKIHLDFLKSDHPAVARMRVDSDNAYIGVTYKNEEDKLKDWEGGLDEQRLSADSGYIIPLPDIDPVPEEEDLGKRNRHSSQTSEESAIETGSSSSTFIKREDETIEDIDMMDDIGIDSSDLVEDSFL
Description: The ability of test compounds to inhibit the phosphorylation of a tyrosine containing polypeptide substrate by the tyrosine kinase enzymes PDGFRα, PDGFRβ and KDR was assessed using conventional ELISA assays.
DNA encoding the PDGFRα, PDGFRβ or KDR receptor cytoplasmic domains may be obtained by total gene synthesis (International Biotechnology Lab., 1987, 5(3), 19-25) or by cloning. The DNA fragments may be expressed in a suitable expression system to obtain polypeptide with tyrosine kinase activity. For example, PDGFRα, PDGFRβ and KDR receptor cytoplasmic domains, obtained by expression of recombinant protein in insect cells, can be shown to display intrinsic tyrosine kinase activity. In the case of the VEGF receptor KDR (Genbank Accession No. L04947), a DNA fragment encoding most of the cytoplasmic domain, commencing with methionine 806 and including the termination codon may be cloned into a baculovirus transplacement vector [for example pAcYM1 (see The Baculovirus Expression System: A Laboratory Guide, L. A. King and R. D. Possee, Chapman and Hall, 1992) or pAc360 or pBlueBacHis (available from Invitrogen Corporation)]. This recombinant construct may be co-transfected into insect cells [for example Spodoptera frugiperda 21(Sf21) or Spodoptera frugiperda 9(Sf9)] with viral DNA (for example Pharmingen BaculoGold) to prepare recombinant baculovirus. […]

[2] = target: T2, KDR tyrosine kinase (Homo sapiens, UniProt P35968); test: In vitro enzyme assay (ELISA), KDR tyrosine kinase; assay type: biochemical; conditions: Test (a); ATP 8 μM; read-out: IC50 versus KDR tyrosine kinase
T2 construct: encoding most of the cytoplasmic domain, commencing with methionine 806 and including the termination codon; made in house; host or cells: Sf9 insect cells (baculovirus)
T2 sequence (P35968 786-1356 limits assumed): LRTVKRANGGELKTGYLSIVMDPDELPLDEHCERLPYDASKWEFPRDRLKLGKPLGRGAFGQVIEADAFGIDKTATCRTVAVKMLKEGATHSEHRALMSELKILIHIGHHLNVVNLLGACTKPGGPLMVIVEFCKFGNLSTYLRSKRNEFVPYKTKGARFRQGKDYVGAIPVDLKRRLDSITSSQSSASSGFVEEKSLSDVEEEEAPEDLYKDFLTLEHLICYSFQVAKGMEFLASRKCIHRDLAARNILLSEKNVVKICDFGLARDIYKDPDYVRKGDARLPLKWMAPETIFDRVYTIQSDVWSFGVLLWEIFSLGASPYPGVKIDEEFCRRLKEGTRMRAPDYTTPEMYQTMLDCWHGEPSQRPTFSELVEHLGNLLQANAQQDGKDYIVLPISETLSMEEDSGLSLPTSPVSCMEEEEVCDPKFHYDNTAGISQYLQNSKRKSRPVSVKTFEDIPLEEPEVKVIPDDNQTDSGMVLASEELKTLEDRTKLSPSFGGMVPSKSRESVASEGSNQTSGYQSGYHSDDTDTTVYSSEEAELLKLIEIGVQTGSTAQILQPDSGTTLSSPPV
Description: For expression, Sf9 cells were infected with plaque-pure KDR recombinant virus and harvested 48 hours later. […] The suspension was centrifuged for 10 minutes at 13,000 rpm at 4° C. The supernatant (stock enzyme solution) was removed and stored in aliquots at −70° C.
(§1) The excess of substrate solution was discarded and the wells were washed in turn with PBS containing 0.05% v/v Tween 20 (PBST; 300 μl/well) and twice with Hepes pH7.4 buffer (50 mM, 300 μl/well) before being blotted dry.
Aliquots (25 μl) of each dilution of test compound were transferred to wells in the washed assay plates. “Maximum” control wells contained diluted DMSO instead of compound. […]
Each kinase enzyme was diluted immediately prior to use with an enzyme diluent comprising 100 mM Hepes pH7.4 buffer, 0.1 mM sodium orthovanadate, 0.1% Triton X-100 and 0.2 mM dithiothreitol. […] The plates were agitated at ambient temperature for about 20 minutes until the optical density value of the “maximum” control wells, as measured at 405 nm using a plate reading spectrophotometer, was approximately 1.0.

[3] = target: T3, PDGFRβ tyrosine kinase (Homo sapiens, UniProt P09619); test: In vitro enzyme assay (ELISA), PDGFRβ tyrosine kinase; assay type: biochemical
T3 construct: PDGFRα, PDGFRβ and KDR receptor cytoplasmic domains, obtained by expression of recombinant protein in insect cells; purchased Upstate Biotechnology Inc. 14-463; host or cells: Sf9 insect cells
T3 sequence (P09619 554-1106 limits assumed): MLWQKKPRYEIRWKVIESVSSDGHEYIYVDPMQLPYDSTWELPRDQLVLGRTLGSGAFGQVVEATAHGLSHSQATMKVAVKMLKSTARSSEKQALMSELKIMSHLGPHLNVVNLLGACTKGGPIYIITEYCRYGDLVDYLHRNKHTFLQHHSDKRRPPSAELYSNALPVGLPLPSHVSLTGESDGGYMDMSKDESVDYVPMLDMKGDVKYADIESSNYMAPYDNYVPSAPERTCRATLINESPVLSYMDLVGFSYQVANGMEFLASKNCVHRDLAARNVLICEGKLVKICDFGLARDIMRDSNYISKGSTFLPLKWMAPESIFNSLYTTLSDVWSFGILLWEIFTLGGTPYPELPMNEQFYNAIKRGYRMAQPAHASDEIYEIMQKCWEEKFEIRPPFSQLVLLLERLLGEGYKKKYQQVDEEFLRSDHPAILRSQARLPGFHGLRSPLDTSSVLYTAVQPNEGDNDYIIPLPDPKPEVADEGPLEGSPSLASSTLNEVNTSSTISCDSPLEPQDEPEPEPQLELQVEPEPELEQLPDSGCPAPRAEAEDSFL
Description: as §1
Aliquots (25 μl) of each dilution of test compound were transferred to wells in the washed assay plates. “Maximum” control wells contained diluted DMSO instead of compound. Aliquots (25 μl) of an aqueous manganese chloride solution (40 mM) containing adenosine-5′-triphosphate (ATP) was added to all test wells except the “blank” control wells which contained magnesium chloride without ATP.
Each kinase enzyme was diluted immediately prior to use with an enzyme diluent comprising 100 mM Hepes pH7.4 buffer, 0.1 mM sodium orthovanadate, 0.1% Triton X-100 and 0.2 mM dithiothreitol. Aliquots (50 μl) of freshly diluted enzyme were added to each well and the plates were agitated at ambient temperature for 20 minutes. […] The plates were agitated at ambient temperature for about 20 minutes until the optical density value of the “maximum” control wells, as measured at 405 nm using a plate reading spectrophotometer, was approximately 1.0.

[4] = target: T4, phospho-Tyr751 PDGFRβ (Homo sapiens, UniProt P09619); test: In vitro phospho-Tyr751 PDGFRβ ELISA assay in MG63 osteosarcoma cells; assay type: cell-based; conditions: Test (b); MG63 cells stimulated with PDGFBB; read-out: IC50 versus phospho-Tyr751 PDGFRβ
T4 construct: phosphorylation of PDGFR expressed on MG63 osteosarcoma cells; endogenous in cells; host or cells: MG63 osteosarcoma cells
T4 sequence (P09619 33-1106): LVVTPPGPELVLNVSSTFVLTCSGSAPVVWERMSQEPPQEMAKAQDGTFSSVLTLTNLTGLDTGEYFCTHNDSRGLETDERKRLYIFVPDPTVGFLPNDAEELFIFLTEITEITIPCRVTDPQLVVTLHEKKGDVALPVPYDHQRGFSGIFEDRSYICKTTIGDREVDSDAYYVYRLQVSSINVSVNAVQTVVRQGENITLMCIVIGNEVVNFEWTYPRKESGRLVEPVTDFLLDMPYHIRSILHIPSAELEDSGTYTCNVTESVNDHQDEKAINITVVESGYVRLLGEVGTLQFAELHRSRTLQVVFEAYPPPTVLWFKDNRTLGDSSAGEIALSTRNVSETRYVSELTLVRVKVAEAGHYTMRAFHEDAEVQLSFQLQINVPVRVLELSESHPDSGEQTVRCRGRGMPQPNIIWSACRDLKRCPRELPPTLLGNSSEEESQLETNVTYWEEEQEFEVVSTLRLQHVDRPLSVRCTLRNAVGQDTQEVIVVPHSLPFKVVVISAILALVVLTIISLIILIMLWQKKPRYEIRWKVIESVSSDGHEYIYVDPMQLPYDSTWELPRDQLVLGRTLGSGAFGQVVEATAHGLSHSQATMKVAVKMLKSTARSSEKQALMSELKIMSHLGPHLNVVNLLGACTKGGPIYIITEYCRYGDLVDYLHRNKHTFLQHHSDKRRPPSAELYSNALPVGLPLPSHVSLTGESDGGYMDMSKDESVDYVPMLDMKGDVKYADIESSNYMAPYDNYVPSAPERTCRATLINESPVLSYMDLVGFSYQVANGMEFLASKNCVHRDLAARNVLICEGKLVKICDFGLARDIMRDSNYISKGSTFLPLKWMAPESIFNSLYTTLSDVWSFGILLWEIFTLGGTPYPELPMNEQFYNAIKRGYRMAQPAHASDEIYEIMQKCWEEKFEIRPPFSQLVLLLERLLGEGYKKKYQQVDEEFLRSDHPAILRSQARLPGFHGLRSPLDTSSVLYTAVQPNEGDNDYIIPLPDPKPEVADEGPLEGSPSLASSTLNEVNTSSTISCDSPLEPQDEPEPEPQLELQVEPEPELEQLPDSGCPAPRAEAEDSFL
Description: This assay uses a conventional ELISA method to determine the ability of test compounds to inhibit phosphorylation of tyrosine in PDGFRβ.
The cells were incubated overnight at 37° C. with 7.5% CO2 to allow the cells to adhere to the wells.
The cells were incubated for 90 minutes at 37° C. with 7.5% CO2.
The resultant cells were stimulated with PDGFBB using the following procedure. […] The cells were incubated at 37° C. with 7.5% CO2 for 5 minutes. […] The resultant tissue culture plates were shaken for 5 minutes at ambient temperature to ensure full lysis and then frozen at −20° C. until required.
The wells were washed 5 times (1 minute soak each time) with 300 μl per well of PBST. The wells were treated with 50 μl of 3% BSA in PBST at ambient temperature for 1 hour and subsequently washed twice with 300 μl per well of PBST.
The tissue culture plates with frozen cell lysate were allowed to warm to 0° C. […] Aliquots (50 μl) of chemiluminescent substrate solution were added to each of the wells, the plates were agitated for 2 minutes and luminescence was read on a SpectraFluor Plus plate reader (Tecan UK Ltd., Reading, Berkshire, UK). Analysis for each of the compounds was completed by determining a ratio of the ‘phospho antibody’ plate reading to the ‘total antibody’ plate reading for each test sample and these ratios were plotted to determine the IC50 value of each test compound.

COc1cc2nccc(Oc3cnn(CC(=O)Nc4cccc(F)c4)c3)c2cc1C#N [Example 1, N-(3-fluorophenyl)-2-[4-(6-cyano-7-methoxyquinolin-4-yloxy)pyrazol-1-yl]acetamide]
IC50 [1]: ~500 nM
IC50 [2]: ~6000 nM
IC50 [3]: ~100 nM
IC50 [4]: ~2 nM
